Experimental data as given in patent publication US20130317056A1, “NEURONAL NICOTINIC AGONISTS AND METHODS OF CORRELATING COMT SNPS” (ABBVIE INC., priority 2012, published 2013).

Key:
[1] = tested on: subjects with schizophrenia who were current smokers; assay: MCCB composite score in current smokers by COMT allele type, Clinical Study A; assay type: in vivo, human; settings: for MCCB Change from Baseline to Final Mean(SD) / MCCB Between-group Difference (Pooled SD) / MCCB Effect Size (Raw mean): current smokers
Description: Analysis of the data by cigarette smoking status (current smoker or current nonsmoker) indicated a significant […] interaction (p=0.015).
A blood sample for genotyping was collected from each subject who consented. Genomic DNA was isolated from whole blood using the FlexiGene DNA AGF3000 kit (Qiagen, Valencia, Calif.), on an AutogenFlex 3000 (AutoGen, Holliston, Mass.). Genotypes were determined using the Pyrosequencing detection method (USA—Qiagen, Inc., Valencia, Calif.). Individuals performing the genotyping were blinded to clinical trial data. The significance of the minor allele against the major allele is shown in column marked “Treatment genotype p-value” (Tables 6 and 7).
The SNPs analyzed were RS6269, RS4633, RS4680, and RS4818. The treatment effects across all 4 SNPs in the minor allele indicated a dose-response relationship. The magnitude of the effect for the Compound A 25 mg treatment group was as low as +1.8 points on the MCCB composite score for SNP4680 (corresponding to a Coen's d effect size of 0.43) to as high as +3.7 points for SNP RS4818 (corresponding to a Coen's d effect size of 0.93). […] In fact, the treatment response for both Compound A active treatment groups was generally less than that of placebo for subjects containing the major COMT allele.

[2] = tested on: clinically stable subjects with schizophrenia; assay: UCSD Performance-Based Skills Assessment-2 (UPSA-2), Clinical Study A; assay type: in vivo, human
Source text: A Phase 2a proof-of-concept (POC) study in clinically stable subjects with schizophrenia who were clinically stable and received stable doses of atypical antipsychotic therapy. The study was a Phase 2, multi-center, randomized, double-blind, placebo-controlled, parallel group study designed to evaluate the safety and efficacy of doses of (4s)-4-(5-phenyl-1,3,4-thiadiazol-2-yloxy)-1-azatricyclo[3.3.1.1^3,7]decane (Compound A) in clinically stable male and female subjects (ages 20 to 55, inclusive) with a Diagnostic and Statistical Manual of Mental Disorders—Fourth Edition, Text Revision (DSM-IV-TR) diagnosis of schizophrenia. Psychiatric diagnoses were confirmed using the Mini-International Neuropsychiatric Interview (MINI) version 6.0.0. The criteria for clinical stability was determined by a combination of retrospective data (over the 4 months prior to the start of Screening, which will be supported by clinical records, patient, identified responsible contact person, and physician interviews), and prospective data assessed during the Prospective Stabilization Period of 28 to 42 days duration.
The study was a Phase 2, multi-center, randomized, double-blind, placebo-controlled, parallel group study designed to evaluate the safety and efficacy of doses of (4s)-4-(5-phenyl-1,3,4-thiadiazol-2-yloxy)-1-azatricyclo[3.3.1.1^3,7]decane, which is also recognized as Compound A, in treating cognitive deficits in subjects with schizophrenia who were clinically stable and receiving one or two atypical antipsychotic medications. Study drug was administered orally.
The study consisted of a screening period of at least 28 and up to 42 days, a 84-day outpatient treatment period, a 14-day post-treatment period, and a post-treatment follow-up period. The screening period consisted of three visits: Screening Visit 1, Screening Visit 2, and Day −1. Upon completion of Day −1 procedures, eligible subjects were randomized through an Interactive Voice Response/Interactive Web-Based (IVR/IWB) system. Subjects were randomized in an equal ratio to one of three treatment groups (placebo, 10 mg Compound A, or 25 mg Compound A).
The primary endpoint was the MCCB composite score, and the primary endpoint analysis was the change on the MCCB composite score from baseline to endpoint versus placebo. Other secondary measures included the MCCB domains, the NSA-16, the CANTAB cognition battery (measured at different time points from the MCCB), and the UPSA-2. The Positive and Negative Syndrome Scale (PANSS) was included to document stability in schizophrenia symptomatology.
The UCSD Performance-Based Skills Assessment-2 (UPSA-2) is a role-play test designed for subjects with schizophrenia to evaluate cognitive functional capacity in six selected domains of basic living skills. These areas include Organization/Planning, Financial Skills, Communication, Transportation, Household Management, and Medication Management. […] Scores were obtained for each subtest, and the total score was the sum of these subtests. […] The UPSA-2 required an average of 30 minutes to administer. The UPSA-2 was administered in on Days 14, 28, 56, 84 and 98.

[3] = RS4633 T/T or C/T (minor allele), 25 mg vs placebo
[4] = RS4818 G/C or G/G (minor allele), 10 mg vs placebo
[5] = RS6269 G/G or A/G (minor allele), 10 mg vs placebo
[6] = RS6269 G/G or A/G (minor allele), 25 mg vs placebo

SMILES: c1ccc(-c2nnc(O[C@@H]3C4CC5C[C@H]3C[N@](C5)C4)s2)cc1 [Compound A, (4s)-4-(5-phenyl-1,3,4-thiadiazol-2-yloxy)-1-azatricyclo[3.3.1.1^3,7]decane]
- treatment effect on MCCB composite score ([1]; current smokers who contained the major allele for the 4 COMT SNPs): No treatment effect
- MCCB Change from Baseline to Final Mean(SD) ([1]; RS4633 C/C (major allele), 25 mg): 0.4(3.9)
- MCCB Between-group Difference (Pooled SD) ([1]; RS4633 C/C (major allele), 25 mg vs placebo): −1.1(5.0)
- MCCB Change from Baseline to Final Mean(SD) ([1]; RS4633 T/T or C/T (minor allele), 10 mg): −0.3(4.4)
- MCCB Between-group Difference (Pooled SD) ([1]; RS4633 T/T or C/T (minor allele), 10 mg vs placebo): −1.2(4.2)
- MCCB Change from Baseline to Final Mean(SD) ([1]; RS4633 T/T or C/T (minor allele), 25 mg): 2.9(4.8)
- MCCB Between-group Difference (Pooled SD) [1, 3]: 2.0(4.5)
- MCCB Effect Size (Raw mean) [1, 3]: 0.44
- MCCB Change from Baseline to Final Mean(SD) ([1]; RS4680 A/A or G/A (minor allele), 10 mg): 0.1(4.6)
- MCCB Between-group Difference (Pooled SD) ([1]; RS4680 A/A or G/A (minor allele), 10 mg vs placebo): −1.0(4.1)
- MCCB Change from Baseline to Final Mean(SD) ([1]; RS4680 A/A or G/A (minor allele), 25 mg): 2.9(4.8)
- MCCB Effect Size (Raw mean) ([1]; RS4680 A/A or G/A (minor allele), 25 mg vs placebo): 0.43
- MCCB Change from Baseline to Final Mean(SD) ([1]; RS4680 G/G (major allele), 25 mg): 0.4(3.9)
- MCCB Between-group Difference (Pooled SD) ([1]; RS4680 G/G (major allele), 25 mg vs placebo): −0.9(5.3)
- MCCB Change from Baseline to Final Mean(SD) ([1]; RS4818 C/C (major allele), 25 mg): 1.2(4.6)
- MCCB Between-group Difference (Pooled SD) ([1]; RS4818 C/C (major allele), 25 mg vs placebo): −1.0(4.9)
- MCCB Change from Baseline to Final Mean(SD) ([1]; RS4818 G/C or G/G (minor allele), 10 mg): 1.7(3.7)
- MCCB Between-group Difference (Pooled SD) [1, 4]: 2.1(3.6)
- MCCB Effect Size (Raw mean) [1, 4]: 0.58
- MCCB Change from Baseline to Final Mean(SD) ([1]; RS4818 G/C or G/G (minor allele), 25 mg): 3.4(4.4)
- MCCB Effect Size (Raw mean) ([1]; RS4818 G/C or G/G (minor allele), 25 mg vs placebo): 0.93
- MCCB Change from Baseline to Final Mean(SD) ([1]; RS6269 A/A (major allele), 25 mg): 0.8(4.6)
- MCCB Between-group Difference (Pooled SD) ([1]; RS6269 A/A (major allele), 25 mg vs placebo): −1.0(3.9)
- MCCB Change from Baseline to Final Mean(SD) ([1]; RS6269 G/G or A/G (minor allele), 10 mg): 2.9(4.2)
- MCCB Between-group Difference (Pooled SD) [1, 5]: 1.8(5.0)
- MCCB Effect Size (Raw mean) [1, 5]: 0.36
- MCCB Change from Baseline to Final Mean(SD) ([1]; RS6269 G/G or A/G (minor allele), 25 mg): 3.1(4.4)
- MCCB Between-group Difference (Pooled SD) [1, 6]: 2.0(5.1)
- MCCB Effect Size (Raw mean) [1, 6]: 0.40
- UPSA-2 medication management subscale score ([2]; 10 mg, P=0.094): statistically significant improvement or statistical trend for improvement
- UPSA-2 household skills subscale score ([2]; 10 mg, P=0.096): statistically significant improvement or statistical trend for improvement
- UPSA-2 comprehension/planning subscale score ([2]; 10 mg, P=0.102): statistically significant improvement or statistical trend for improvement
- UPSA-2 comprehension/planning subscale score ([2]; 25 mg, P=0.005): statistically significant improvement or statistical trend for improvement
- UPSA-2 composite score, significance versus placebo ([2]; either dose group (10 mg, 25 mg)): No significance
